Test results reported in PMC5306062, “Pharmacology and toxicology of the novel investigational agent Cantrixil (TRX-E-002-1)” (Cancer Chemotherapy and Pharmacology, 2016).
Like-named read-outs stand apart in the source and are kept apart here.

Key:
[1] = Rat pharmacokinetics after single intraperitoneal injection of 100 mg/kg; format: in vivo, Sprague–Dawley rats; conditions: for AUC(0-inf) / Tmax / half-life: Sprague-Dawley, rat, ip, plasma
Protocol: The pharmacokinetics of TRX-E-002-1 was evaluated in male female Sprague–Dawley rats following a single intraperitoneal injection of 100 mg/kg TRX-E-002-1 in 20% SBECD vehicle. Absorption was rapid, with C max mean plasma concentrations reached 0.25/1 h after dosing in female/male rats. […] Mean plasma levels decreased to below the limit of quantification by 24 h (not shown). The AUC0−∞ value was 29,537 and 44,702 ng h/mL in female and male rats, respectively (Table 2). High tissue levels were observed 0.5–6 h after dosing, with levels higher than the plasma concentration in pancreas, ovaries, large intestine, skin, kidneys, liver, stomach and adrenal glands (not shown). Treatment of plasma and tissue samples with glucuronidase indicated the presence of low levels of a glucuronide conjugate of TRX-E-002-1 (not shown). Other metabolic pathways have not yet been investigated. […] Parent drug was excreted in the urine and faeces, and high levels of the glucuronide metabolite were found in the faeces.
Tissue concentrations of total drug (parent + glucuronide) were also similar to those in plasma except in liver, where they were 2–3 times higher.

[2] = test system: disseminated ovarian cancer model; assay: Disseminated ovarian cancer model, intraperitoneal dosing; format: in vivo, mice
Text: In vivo, TRX-E-002-1, formulated in 20% SBECD, was active in a disseminated ovarian cancer model and a recurrent ovarian cancer model in which tumour recurrence is investigated following initial treatment of the OCSC2-inoculated mice with paclitaxel. In both models, TRX-E-002-1 inhibited tumour growth following once daily intraperitoneal administration.
The combination of TRX-E-002-1 and cisplatin was investigated in the murine model of disseminated ovarian cancer.

[3] = test system: chemo-sensitive CD44−/MyD88− ovarian cancer cell lines; assay: Cell death in chemo-sensitive ovarian cancer cell lines; format: cell-based, human; conditions: grown separately or in co-cultures
Text: Tumour recurrence post-chemotherapy is caused by the regrowth of the surviving innately drug-resistant cancer stem cells that remain in tumour niches during and post-chemotherapy. The expansion of this chemo-resistant cancer cell population, coupled with upregulation of pro-survival pathways due to drug pressure, is thought to be responsible for the development of chemo-resistant recurrent disease. Further, the inherent heterogeneity of ovarian tumours consists of epithelial cells with varying potential for stemness, and a population of cancer cells with varying mesenchymal status and invasiveness potential. Therefore, to improve survival, a practical approach is the use of novel therapies that can induce cell death in these various subtypes of ovarian cancer cells. TRX-E-002-1 was assessed against ovarian cancer stem cell line OCSC2, characterised by their expression of stem cell markers including CD44 and […] [22]. A major characteristic of these cells is that they are drug resistant, able to form self-renewing spheroids in non-adherent culture, and recreate disseminated drug-resistant ovarian tumours that have a high degree of heterogeneity similar to the clinical profile observed in patients when inoculated into the peritoneal cavity of an immune-compromised mouse.

[4] = Dog GLP 28-day repeat-dose study, intraperitoneal three times per week; format: in vivo, beagle dogs
Protocol: For the dog GLP 28-day repeat-dose study, beagle dogs received intraperitoneal injections of vehicle (3:20 dilution of 20% SBECD in 0.9% saline) or Cantrixil (1, 10 or 30 mg/kg) three times per week for 4 weeks via an implanted catheter. Blood samples were collected from all dogs at 0.25, 0.5, 1, 2, 4 and 24 h after dosing on Days 1 and 26. […] Mean C max and AUClast values were similar in males and females and were greater than proportional to dose. […] Corresponding mean AUClast values on Day 1 were 71.4/80.5, 2810/2260 and 10,500/11,000 ng h/mL, respectively, for males/females.
Treatment-related clinical signs observed in males and females at 10 or 30 mg/kg included emesis, and soft or liquid faeces. […] Food consumption was affected to a lesser extent in females at 30 mg/kg and was not associated with discernible effect on body weight gain.
Similar changes were apparent but less severe in high-dose males and females after the 2-week recovery period. Coagulation parameters, serum chemistry, urinalysis and bone marrow examinations were unremarkable.
Red discoloration in the caecum was also observed in all male dogs and one female dog in the 30 mg/kg group. […] No treatment-related macroscopic abnormalities were observed after the recovery period.
In summary, the main toxicity findings following intraperitoneal administration of TRX-E-002-1 30 mg/kg in SBECD to beagle dogs three times per week for 4 weeks were emesis, soft and/or liquid faeces, leukocytosis with elevated neutrophil and monocyte counts, red discoloration in the caecum and degenerative changes in male reproductive organs. Some of these effects were also observed at the mid-dose of 10 mg/kg, while 1 mg/kg was a clear no-effect dose. […] No differences between sexes were apparent in toxic effects or systemic exposure, and the NOAEL for combined sexes was 10 mg/kg. The 10 mg/kg dose was also considered the highest non-severely toxic dose (HNSTD), and mean plasma AUClast for combined sexes at this dose was 2310 ng h/mL on Day 26.

In the case of `COc1cc([C@@H]2COc3c(ccc(O)c3C)[C@@H]2c2ccc(O)cc2)cc(OC)c1O` [TRX-E-002-1, (+) cis-4-(para-hydroxyphenyl)-7,4′-dihydroxy-3′,5′-dimethoxy-8-methylisoflavan], the “time by which mean plasma levels were below the limit of quantification” value ([1]; 100 mg/kg i.p.) is reported as ≤ 24 h, the AUC(0-inf) ([1]; female rats, 100 mg/kg i.p.) is reported as 29500 ng·h/mL and the Tmax ([1]; female rats, 100 mg/kg i.p.) is reported as 0.25 h. It also gave an AUC(0-inf) ([1]; male rats, 100 mg/kg i.p.) of 44700 ng·h/mL, a Tmax ([1]; male rats, 100 mg/kg i.p.) of 1 h and a half-life ([1]; female rats, 100 mg/kg i.p., read-out: T ½ (plasma elimination half-life) (converted)) of ~1.3 h. For the same molecule, the half-life ([1]; male rats, 100 mg/kg i.p., read-out: plasma elimination half-life (converted)) was ~1.9 h, the “plasma unconjugated TRX-E-002-1 as share of total levels (parent + glucuronide)” value ([1]; female rats, up to 6 h after dosing) was “approximately 90%” and the tumour growth ([2]; 100 mg/kg i.p. once daily in 20% SBECD for 13–14 days) was “significantly inhibited”. The “tumour growth during the 16-day treatment period” value ([2]; TRX-E-002-1 100 mg/kg once daily, cisplatin 5 mg/kg once weekly, or both) was “significantly inhibited”, the “tumour growth during the 5-week post-treatment period” value ([2]; after 16-day treatment, TRX-E-002-1 100 mg/kg once daily, cisplatin 5 mg/kg once weekly, or both) was “decreased” and the “induction of cell death” value [3] was “able to induce cell death”. For the same molecule, the “accumulation with three times weekly dosing” value ([4]; Day 26 vs Day 1) was “no accumulation”, the NOAEL at 4 weeks ([4]; both sexes, beagle, dog, in vivo, intraperitoneal, combined sexes) was 10 mg/kg and the AUC(0-t) ([4]; both sexes, beagle, dog, plasma, intraperitoneal, combined sexes, 10 mg/kg, Day 26, read-out: mean plasma AUClast) was 2310 ng·h/mL. The clear no-effect dose ([4]; dog, in vivo) was 1 mg/kg, the “highest non-severely toxic dose (HNSTD)” value ([4]; dog, in vivo) was 10 mg/kg and the NOAEL at 4 weeks ([4]; female, beagle, dog, in vivo, intraperitoneal, females) was 30 mg/kg. It also gave an NOAEL at 4 weeks ([4]; male, beagle, dog, in vivo, intraperitoneal, males) of 10 mg/kg.
